Data published in patent publication US20250115591A1, “NOVEL SULFONAMIDE CARBOXAMIDE COMPOUNDS” (INFLAZOME LIMITED, priority 2017, published 2025).
Where a name gives a salt, the structure may show the parent alone.

How the values were obtained:
[1] = biological target: T1, NLRP3 (Homo sapiens (Human), UniProt Q96P20); test: THP-1 cells pyroptosis assay (LPS + nigericin, resazurin read-out); format: cell-based; conditions: 1 μg/ml LPS, 5 μM nigericin
Procedure, shortened: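 LPS-primed (1 μg/ml) human THP-1 cells in serum-free RPMI were exposed to compound (8-point half-log series, top dose as printed "10M") for 3 h at 37 °C, then to nigericin 5 μM for 1 h. Remaining viability was read by resazurin (100 μM, 1-2 h) fluorescence, and IC50 came from 4-parameter variable-slope regression.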

[2] = biological target: T1, NLRP3; test: Human whole blood IL1β release assay (LPS + nigericin); format: cell-based; conditions: human whole blood, 1 μg/ml LPS, nigericin, IL-1β release; read-out: HWB IC50
Description: For systemic delivery, the ability to inhibit NLRP3 when the compounds are present within the bloodstream is of great importance. For this reason, the NLRP3 inhibitory activity of a number of compounds in human whole blood was investigated in accordance with the following protocol.
Human whole blood in Li-heparin tubes was obtained from healthy donors from a volunteer donor panel. • 1. Plate out 80 μl of whole blood containing 1 μg/ml of LPS in 96-well, clear bottom cell culture plate (Corning #3585) • 2. Add 10 μl compound (8 points half-log dilution with 10 μM top dose) or vehicle (DMSO 0.1% FAC) to the appropriate wells • 3. Incubate for 3 hrs at 37° C., 5% CO2 • 4. Add 10 μl nigericin (Sigma #N7143) ([…]) to all wells • 5. Incubate for 1 hr at 37° C., 5% CO2 • 6. At the end of the incubation period, spin plates at 30×g for 5 mins to pellet cells and remove 20 μl of supernatant and add to 96-well v-bottom plates for IL-1β analysis (note: these plates containing the supernatants can be stored at −80° C. to be analysed at a later date) • 7. IL-1β was measured according to the manufacturer protocol (Perkin Elmer-AlphaLisa IL-Kit A[220F-5000) • 8. IC50 data is fitted to a non-linear regression equation (log inhibitor vs response-variable slope 4-parameters)

T1 sequence (Q96P20 whole entry): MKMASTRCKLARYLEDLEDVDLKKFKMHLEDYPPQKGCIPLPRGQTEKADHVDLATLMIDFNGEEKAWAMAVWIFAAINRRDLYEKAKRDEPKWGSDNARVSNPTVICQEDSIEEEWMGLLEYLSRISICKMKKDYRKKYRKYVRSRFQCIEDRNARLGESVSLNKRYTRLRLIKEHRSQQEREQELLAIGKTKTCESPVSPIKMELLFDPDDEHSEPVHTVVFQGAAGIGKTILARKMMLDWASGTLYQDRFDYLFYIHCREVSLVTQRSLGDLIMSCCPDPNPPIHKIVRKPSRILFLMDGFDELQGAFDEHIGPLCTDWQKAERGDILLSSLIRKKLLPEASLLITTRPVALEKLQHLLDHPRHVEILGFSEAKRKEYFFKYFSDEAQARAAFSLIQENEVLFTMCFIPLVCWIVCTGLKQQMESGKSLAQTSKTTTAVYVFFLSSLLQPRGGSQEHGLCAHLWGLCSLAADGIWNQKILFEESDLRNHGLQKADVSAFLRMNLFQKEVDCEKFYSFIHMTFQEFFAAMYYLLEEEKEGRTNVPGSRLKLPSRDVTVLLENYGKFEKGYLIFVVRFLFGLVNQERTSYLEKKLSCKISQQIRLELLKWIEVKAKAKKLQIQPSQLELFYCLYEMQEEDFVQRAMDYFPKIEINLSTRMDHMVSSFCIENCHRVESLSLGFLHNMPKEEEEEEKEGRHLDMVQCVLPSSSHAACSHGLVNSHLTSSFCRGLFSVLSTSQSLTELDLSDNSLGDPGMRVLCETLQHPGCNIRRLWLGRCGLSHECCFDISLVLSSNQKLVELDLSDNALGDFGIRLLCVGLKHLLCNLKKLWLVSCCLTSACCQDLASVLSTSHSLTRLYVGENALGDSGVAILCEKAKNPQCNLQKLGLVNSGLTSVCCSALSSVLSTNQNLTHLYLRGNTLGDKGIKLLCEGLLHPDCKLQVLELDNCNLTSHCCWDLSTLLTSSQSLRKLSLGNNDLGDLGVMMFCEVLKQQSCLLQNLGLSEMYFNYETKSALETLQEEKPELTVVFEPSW

Compound | IC50 [1] | IC50 [2]
O=C(Nc1c2c(cc3c1CCC3)CCC2)NS(=O)(=O)C1CN(CCCO)C1 [Example 134, N-((1,2,3,5,6,7-Hexahydro-s-indacen-4-yl)carbamoyl)-1-(3-hydroxypropyl)azetidine-3-sulfonamide, potassium salt] | < 1000 nM | 1000 to 10000 nM
CCN1CC(N2CCC(S(=O)(=O)NC(=O)Nc3c4c(cc5c3CCC5)CCC4)CC2)C1 [Example 24, 1-(1-Ethylazetidin-3-yl)-N-((1,2,3,5,6,7-hexahydro-s-indacen-4-yl)carbamoyl)piperidine-4-sulfonamide, potassium salt] | < 1000 nM | < 1000 nM
O=C(Nc1c2c(cc3c1CCC3)CCC2)NS(=O)(=O)C1CN(CC2COC2)C1 [Example 101, N-((1,2,3,5,6,7-Hexahydro-s-indacen-4-yl)carbamoyl)-1-(oxetan-3-ylmethyl)azetidine-3-sulfonamide, potassium salt] | < 1000 nM | < 1000 nM
COc1cc(-c2ccc3c(c2NC(=O)NS(=O)(=O)C2CN(Cc4cccnc4)C2)CCC3)ccn1 [Example 170, N-((5-(2-Methoxypyridin-4-yl)-2,3-dihydro-1H-inden-4-yl)carbamoyl)-1-(pyridin-3-ylmethyl)azetidine-3-sulfonamide] | 1000 to 10000 nM | 1000 to 10000 nM
O=C(Nc1c2c(cc3c1CCC3)CCC2)NS(=O)(=O)C1CN(C2CCOCC2)C1 [Example 75, N-((1,2,3,5,6,7-Hexahydro-s-indacen-4-yl)carbamoyl)-1-(tetrahydro-2H-pyran-4-yl)azetidine-3-sulfonamide, potassium salt] | < 1000 nM | < 1000 nM
O=C(Nc1c2c(cc3c1CCC3)CCC2)NS(=O)(=O)C1CN(CCO)C1 [Example 152, 1-(2-Hydroxyethyl)-N-((1,2,3,5,6,7-hexahydro-s-indacen-4-yl)carbamoyl)azetidine-3-sulfonamide, potassium salt] | < 1000 nM | < 1000 nM
Cn1ccc(CN2CC(S(=O)(=O)NC(=O)Nc3c4c(cc5c3CCC5)CCC4)C2)cc1=O [Example 141, N-((1,2,3,5,6,7-Hexahydro-s-indacen-4-yl)carbamoyl)-1-((1-methyl-2-oxo-1,2-dihydropyridin-4-yl)methyl)azetidine-3-sulfonamide, potassium salt] | < 1000 nM | 1000 to 10000 nM
O=C(Nc1c2c(cc3c1CCC3)CCC2)NS(=O)(=O)C1CCNCC1 [Example 4, N-((1,2,3,5,6,7-Hexahydro-s-indacen-4-yl)carbamoyl)-piperidine-4-sulfonamide, potassium salt] | 1000 to 10000 nM | 1000 to 10000 nM
O=C(Nc1c2c(cc3c1CCC3)CCC2)NS(=O)(=O)C1CN(CC2CCOC2)C1 (centres unmarked) [Example 144, N-((1,2,3,5,6,7-Hexahydro-s-indacen-4-yl)carbamoyl)-1-((tetrahydrofuran-3-yl)methyl)azetidine-3-sulfonamide, potassium salt] | < 1000 nM | 1000 to 10000 nM
O=C(Nc1c2c(cc3c1CCC3)CCC2)NS(=O)(=O)C1CN(CC(F)(F)F)C1 [Example 96, N-((1,2,3,5,6,7-Hexahydro-s-indacen-4-yl)carbamoyl)-1-(2,2,2-trifluoroethyl)azetidine-3-sulfonamide, potassium salt] | < 1000 nM | 1000 to 10000 nM
O=C(Nc1c2c(cc3c1CCC3)CCC2)NS(=O)(=O)C1CN(CCF)C1 [Example 108, 1-(2-Fluoroethyl)-N-((1,2,3,5,6,7-hexahydro-s-indacen-4-yl)carbamoyl)azetidine-3-sulfonamide, potassium salt] | < 1000 nM | < 1000 nM
O=C(Nc1c2c(cc3c1CCC3)CCC2)NS(=O)(=O)C1CCN(C(=O)C(F)(F)F)CC1 [Example 8, N-((1,2,3,5,6,7-Hexahydro-s-indacen-4-yl)carbamoyl)-1-(2,2,2-trifluoroacetyl)piperidine-4-sulfonamide, potassium salt] | 1000 to 10000 nM | < 1000 nM
CN1CC(S(=O)(=O)NC(=O)Nc2c3c(cc4c2CCC4)CCC3)C1 [Example 49, N-((1,2,3,5,6,7-Hexahydro-s-indacen-4-yl)carbamoyl)-1-methylazetidine-3-sulfonamide, potassium salt] | < 1000 nM | < 1000 nM
CCC(C)N1CC(S(=O)(=O)NC(=O)Nc2c3c(cc4c2CCC4)CCC3)C1 (centres unmarked) [Example 122, 1-(sec-Butyl)-N-((1,2,3,5,6,7-hexahydro-s-indacen-4-yl)carbamoyl)azetidine-3-sulfonamide, potassium salt] | < 1000 nM | < 1000 nM
O=C(Nc1c2c(cc3c1CCC3)CCC2)NS(=O)(=O)C1CCCN(CCF)C1 (centres unmarked) [Example 34, 1-(2-Fluoroethyl)-N-((1,2,3,5,6,7-hexahydro-s-indacen-4-yl)carbamoyl)piperidine-3-sulfonamide, potassium salt] | < 1000 nM | 1000 to 10000 nM
O=C(Nc1c2c(cc3c1CCC3)CCC2)NS(=O)(=O)C1CN(CC2CCCO2)C1 (centres unmarked) [Example 145, N-((1,2,3,5,6,7-Hexahydro-s-indacen-4-yl)carbamoyl)-1-((tetrahydrofuran-2-yl)methyl)azetidine-3-sulfonamide, potassium salt] | < 1000 nM | 1000 to 10000 nM
O=C(Nc1c2c(cc3c1CCC3)CCC2)NS(=O)(=O)C1CCN(C(=O)C2CC2)CC1 [Example 7, 1-(Cyclopropanecarbonyl)-N-((1,2,3,5,6,7-hexahydro-s-indacen-4-yl)carbamoyl)piperidine-4-sulfonamide, potassium salt] | < 1000 nM | 1000 to 10000 nM
CC(C(F)F)N1CC(S(=O)(=O)NC(=O)Nc2c3c(cc4c2CCC4)CCC3)C1 (centres unmarked) [Example 131, 1-(1,1-Difluoropropan-2-yl)-N-((1,2,3,5,6,7-hexahydro-s-indacen-4-yl)carbamoyl)azetidine-3-sulfonamide, potassium salt] | < 1000 nM | 1000 to 10000 nM
O=C(Nc1c2c(cc3c1CCC3)CCC2)NS(=O)(=O)C1CCN(C2CC2)C1 (centres unmarked) [Example 39, 1-Cyclopropyl-N-((1,2,3,5,6,7-hexahydro-s-indacen-4-yl)carbamoyl)pyrrolidine-3-sulfonamide, potassium salt] | < 1000 nM | 1000 to 10000 nM
O=C(Nc1c2c(cc3c1CCC3)CCC2)NS(=O)(=O)C1CN(CC2CCC2)C1 [Example 126, 1-(Cyclobutylmethyl)-N-((1,2,3,5,6,7-hexahydro-s-indacen-4-yl)carbamoyl)azetidine-3-sulfonamide, potassium salt] | 1000 to 10000 nM | 1000 to 10000 nM
O=C(Nc1c2c(cc3c1CCC3)CCC2)NS(=O)(=O)C1CN(Cc2ccncc2)C1 [Example 103, N-((1,2,3,5,6,7-Hexahydro-s-indacen-4-yl)carbamoyl)-1-(pyridin-4-ylmethyl)azetidine-3-sulfonamide, potassium salt] | < 1000 nM | 1000 to 10000 nM
O=C(Nc1c2c(cc3c1CCC3)CCC2)NS(=O)(=O)C1CN(CCCCO)C1 [Example 138, N-((1,2,3,5,6,7-Hexahydro-s-indacen-4-yl)carbamoyl)-1-(4-hydroxybutyl)azetidine-3-sulfonamide, potassium salt] | < 1000 nM | < 1000 nM
O=C(Nc1c2c(cc3c1CCC3)CCC2)NS(=O)(=O)C1CNc2ccccc2C1 (centres unmarked) [Example 35, N-((1,2,3,5,6,7-Hexahydro-s-indacen-4-yl)carbamoyl)-1,2,3,4-tetrahydroquinoline-3-sulfonamide, potassium salt] | < 1000 nM | > 10000 nM
COc1cc(-c2ccc3c(c2NC(=O)NS(=O)(=O)C2CN(C(C)C)C2)CCC3)ccn1 [Example 159, 1-Isopropyl-N-((5-(2-methoxypyridin-4-yl)-2,3-dihydro-1H-inden-4-yl)carbamoyl)azetidine-3-sulfonamide] | < 1000 nM | < 1000 nM
CCC(=O)N1CCCC(S(=O)(=O)NC(=O)Nc2c3c(cc4c2CCC4)CCC3)C1 (centres unmarked) [Example 32, N-((1,2,3,5,6,7-Hexahydro-s-indacen-4-yl)carbamoyl)-1-propionylpiperidine-3-sulfonamide, potassium salt] | 1000 to 10000 nM | 1000 to 10000 nM
CC(C)n1cc(S(=O)(=O)NC(=O)Nc2c3c(cc4c2CCC4)CCC3)ccc1=O [Example 185, N-((1,2,3,5,6,7-Hexahydro-s-indacen-4-yl)carbamoyl)-1-isopropyl-6-oxo-1,6-dihydropyridine-3-sulfonamide, sodium salt] | < 1000 nM | 1000 to 10000 nM
CCC(CC)N1CC(S(=O)(=O)NC(=O)Nc2c3c(cc4c2CCC4)CCC3)C1 [Example 65, N-((1,2,3,5,6,7-Hexahydro-s-indacen-4-yl)carbamoyl)-1-(pentan-3-yl)azetidine-3-sulfonamide, potassium salt] | < 1000 nM | < 1000 nM
C#CCN1CCC(S(=O)(=O)NC(=O)Nc2c3c(cc4c2CCC4)CCC3)CC1 [Example 2, N-((1,2,3,5,6,7-Hexahydro-s-indacen-4-yl)carbamoyl)-1-(prop-2-yn-1-yl)piperidine-4-sulfonamide, potassium salt] | 1000 to 10000 nM | 1000 to 10000 nM
